# Source: PubChem BioAssay AID2060512 (Molecular Pharmacology Branch, DTP, NCI, 2025)
# Tested on: 186277-243-T-J2-PDC complex spheroid viability
# Test: Anticancer human tumor 186277-243-T-J2-PDC patient-derived colon adenocarcinoma cell line growth inhibition [GQUAD]
# Conditions: for IC50: curve of first compound; for viability, T/C: stronger effect = lower value
# Outline: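 Viability of tumor cells grown as complex spheroids with endothelial and stromal cells, exposed to drug combinations. Top concentration at or near clinical Cmax (else 10 microM), diluted in half-log increments.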
# [1] = second compound 0.0316 µM, first compound 0.0316 µM
# [2] = second compound 0.0316 µM, first compound 0.316 µM
# [3] = second compound 0.1 µM, first compound 0.0316 µM
# [4] = second compound 0.1 µM, first compound 0.316 µM
# [5] = second compound 0.316 µM, first compound 0.0316 µM
# [6] = second compound 0.316 µM, first compound 0.316 µM
# [7] = second compound 1 µM, first compound 0.0316 µM
# [8] = second compound 1 µM, first compound 0.316 µM
# [9] = second compound 3.16 µM, first compound 0.0316 µM
# [10] = second compound 3.16 µM, first compound 0.316 µM
# [11] = second compound 10 µM, first compound 0.0316 µM
# [12] = second compound 10 µM, first compound 0.316 µM
# [13] = second compound 0.0316 µM, first compound 0.1 µM
# [14] = second compound 0.0316 µM, first compound 1 µM
# [15] = second compound 0.0316 µM, first compound 3.16 µM
# [16] = second compound 0.0316 µM, first compound 10 µM
# [17] = second compound 0.1 µM, first compound 0.1 µM
# [18] = second compound 0.1 µM, first compound 1 µM
# [19] = second compound 0.1 µM, first compound 3.16 µM
# [20] = second compound 0.1 µM, first compound 10 µM
# [21] = second compound 0.316 µM, first compound 0.1 µM
# [22] = second compound 0.316 µM, first compound 1 µM
# [23] = second compound 0.316 µM, first compound 3.16 µM
# [24] = second compound 0.316 µM, first compound 10 µM
# [25] = second compound 1 µM, first compound 0.1 µM
# [26] = second compound 1 µM, first compound 1 µM
# [27] = second compound 1 µM, first compound 3.16 µM
# [28] = second compound 1 µM, first compound 10 µM
# [29] = second compound 3.16 µM, first compound 0.1 µM
# [30] = second compound 3.16 µM, first compound 1 µM
# [31] = second compound 3.16 µM, first compound 3.16 µM
# [32] = second compound 3.16 µM, first compound 10 µM
# [33] = second compound 10 µM, first compound 0.1 µM
# [34] = second compound 10 µM, first compound 1 µM
# [35] = second compound 10 µM, first compound 3.16 µM
# [36] = second compound 10 µM, first compound 10 µM
# 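Throughout, for viability, T/C: 100% = DMSO vehicle control viability.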
smiles,measurement,setting,value
Cc1[nH]c2ccccc2c1CCNCc1ccc(/C=C/C(=O)NO)cc1 + Cc1[nH]c2ccc(F)cc2c1-c1nc2c3cccnc3c3ncccc3c2[nH]1,IC50,second compound 0.0316 µM,41.3 nM
same,IC50,second compound 0.1 µM,44.2 nM
same,IC50,second compound 0.316 µM,47.1 nM
same,IC50,second compound 1 µM,41.8 nM
same,IC50,second compound 3.16 µM,40.4 nM
same,IC50,second compound 10 µM,47.5 nM
same,"viability, T/C","second compound 0.0316 µM, first compound 0.000999 µM",110%
same,"viability, T/C","second compound 0.0316 µM, first compound 0.00316 µM",108%
same,"viability, T/C","second compound 0.0316 µM, first compound 0.00999 µM",104%
same,"viability, T/C",[1],62.1%
same,"viability, T/C","second compound 0.0316 µM, first compound 0.0999 µM",9.83%
same,"viability, T/C",[2],0.44%
same,"viability, T/C","second compound 0.1 µM, first compound 0.000999 µM",115%
same,"viability, T/C","second compound 0.1 µM, first compound 0.00316 µM",105%
same,"viability, T/C","second compound 0.1 µM, first compound 0.00999 µM",90.7%
same,"viability, T/C",[3],69.8%
same,"viability, T/C","second compound 0.1 µM, first compound 0.0999 µM",10.4%
same,"viability, T/C",[4],0.56%
same,"viability, T/C","second compound 0.316 µM, first compound 0.000999 µM",93.3%
same,"viability, T/C","second compound 0.316 µM, first compound 0.00316 µM",101%
same,"viability, T/C","second compound 0.316 µM, first compound 0.00999 µM",97%
same,"viability, T/C",[5],71.2%
same,"viability, T/C","second compound 0.316 µM, first compound 0.0999 µM",9.88%
same,"viability, T/C",[6],1.7%
same,"viability, T/C","second compound 1 µM, first compound 0.000999 µM",90.5%
same,"viability, T/C","second compound 1 µM, first compound 0.00316 µM",107%
same,"viability, T/C","second compound 1 µM, first compound 0.00999 µM",104%
same,"viability, T/C",[7],62.8%
same,"viability, T/C","second compound 1 µM, first compound 0.0999 µM",9.69%
same,"viability, T/C",[8],0.96%
same,"viability, T/C","second compound 3.16 µM, first compound 0.000999 µM",101%
same,"viability, T/C","second compound 3.16 µM, first compound 0.00316 µM",111%
same,"viability, T/C","second compound 3.16 µM, first compound 0.00999 µM",100%
same,"viability, T/C",[9],61.1%
same,"viability, T/C","second compound 3.16 µM, first compound 0.0999 µM",9%
same,"viability, T/C",[10],0.47%
same,"viability, T/C","second compound 10 µM, first compound 0.000999 µM",95%
same,"viability, T/C","second compound 10 µM, first compound 0.00316 µM",98.5%
same,"viability, T/C","second compound 10 µM, first compound 0.00999 µM",99.9%
same,"viability, T/C",[11],71.1%
same,"viability, T/C","second compound 10 µM, first compound 0.0999 µM",11.2%
same,"viability, T/C",[12],1.07%
O=C(NO)c1cnc(N2CCN(S(=O)(=O)c3ccc4ccccc4c3)CC2)nc1 + Cc1[nH]c2ccc(F)cc2c1-c1nc2c3cccnc3c3ncccc3c2[nH]1,IC50,second compound 0.0316 µM,183 nM
same,IC50,second compound 0.1 µM,187 nM
same,IC50,second compound 0.316 µM,203 nM
same,IC50,second compound 1 µM,190 nM
same,IC50,second compound 3.16 µM,203 nM
same,IC50,second compound 10 µM,218 nM
same,"viability, T/C",[1],100%
same,"viability, T/C",[13],94%
same,"viability, T/C",[2],9.84%
same,"viability, T/C",[14],0.27%
same,"viability, T/C",[15],0.17%
same,"viability, T/C",[16],0.17%
same,"viability, T/C",[3],117%
same,"viability, T/C",[17],95%
same,"viability, T/C",[4],12.1%
same,"viability, T/C",[18],0.25%
same,"viability, T/C",[19],0.14%
same,"viability, T/C",[20],0.12%
same,"viability, T/C",[5],103%
same,"viability, T/C",[21],115%
same,"viability, T/C",[6],13.1%
same,"viability, T/C",[22],0.3%
same,"viability, T/C",[23],0.12%
same,"viability, T/C",[24],0.11%
same,"viability, T/C",[7],91.5%
same,"viability, T/C",[25],95.1%
same,"viability, T/C",[8],15.3%
same,"viability, T/C",[26],0.34%
same,"viability, T/C",[27],0.11%
same,"viability, T/C",[28],0.13%
same,"viability, T/C",[9],100%
same,"viability, T/C",[29],98.2%
same,"viability, T/C",[10],19.7%
same,"viability, T/C",[30],0.38%
same,"viability, T/C",[31],0.14%
same,"viability, T/C",[32],0.16%
same,"viability, T/C",[11],100%
same,"viability, T/C",[33],98.5%
same,"viability, T/C",[12],26.7%
same,"viability, T/C",[34],0.52%
same,"viability, T/C",[35],0.2%
same,"viability, T/C",[36],0.22%
O=c1[nH]cc(F)c(=O)[nH]1 + Cc1[nH]c2ccc(F)cc2c1-c1nc2c3cccnc3c3ncccc3c2[nH]1,IC50,second compound 0.0316 µM,> 10000 nM
same,IC50,second compound 0.1 µM,> 10000 nM
same,IC50,second compound 0.316 µM,8530 nM
same,IC50,second compound 1 µM,> 10000 nM
same,IC50,second compound 3.16 µM,7710 nM
same,IC50,second compound 10 µM,6670 nM
same,"viability, T/C",[1],107%
same,"viability, T/C",[13],99.2%
same,"viability, T/C",[2],110%
same,"viability, T/C",[14],106%
same,"viability, T/C",[15],67.7%
same,"viability, T/C",[16],51.4%
same,"viability, T/C",[3],94.7%
same,"viability, T/C",[17],86.5%
same,"viability, T/C",[4],110%
same,"viability, T/C",[18],109%
same,"viability, T/C",[19],80.9%
same,"viability, T/C",[20],51.7%
same,"viability, T/C",[5],84.9%
same,"viability, T/C",[21],101%
same,"viability, T/C",[6],106%
same,"viability, T/C",[22],124%
same,"viability, T/C",[23],80.7%
same,"viability, T/C",[24],45.1%
same,"viability, T/C",[7],98.2%
same,"viability, T/C",[25],93.7%
same,"viability, T/C",[8],93.5%
same,"viability, T/C",[26],87.7%
same,"viability, T/C",[27],80.7%
same,"viability, T/C",[28],51.4%
same,"viability, T/C",[9],97.9%
same,"viability, T/C",[29],94%
same,"viability, T/C",[10],110%
same,"viability, T/C",[30],99.4%
same,"viability, T/C",[31],68.6%
same,"viability, T/C",[32],44.6%
same,"viability, T/C",[11],106%
same,"viability, T/C",[33],108%
same,"viability, T/C",[12],110%
same,"viability, T/C",[34],116%
same,"viability, T/C",[35],69.3%
same,"viability, T/C",[36],39.5%
